Test results from article PMC12203697, “Bioactive constituents from the edible seaweed Halymenia hawaiiana (Rhodophyta)” (Pharmaceutical Biology, 2025).

System: ROS/RNS generation in RAW 264.7 cells
Assay: Intracellular ROS/RNS levels in LPS-induced RAW 264.7 cells (H2DCF-DA)
Assay type: cell-based
Conditions: Mus musculus, RAW264.7; RAW 264.7 cells, H2DCF-DA dye, LPS 1 μg/mL; read-out: IC50, inhibition of LPS-induced ROS/RNS generation
Procedure: To measure the formation of intracellular ROS and RNS, we utilized the fluorogenic dye 2′,7′-dichlorodihydrofluorescein diacetate (Cat. No. 4091-99-0, H2DCF-DA, Abcam, Boston, MA, USA). This dye detects hydrogen peroxide, peroxyl radicals, and peroxynitrite anions (Kwon et al. [2019]). In brief, RAW 264.7 cells were seeded into a black 96-well plate (Cat. No. 165305, Thermo Fisher, USA) at 4 × 10^4 cells per well and incubated for 24 hr at 37 °C in 5% CO2. Afterward, the cells were treated with or without a sample for 4 hr before adding 1 μg/mL LPS (Cat. No. 00-4976-93, Thermo Fisher, USA) for 20 hr. Once this incubation was complete, the cells were washed twice with fetal bovine serum (FBS)-free media (Cat. No. A5256701, Thermo Fisher, USA) and stained with 10 μM H2DCF-DA (Cat. No. D399, Thermo Fisher, USA) in FBS-free media for 30 min at 37 °C, protected from light. Next, the dye-containing media was discarded, and the cells were washed twice with fresh serum-free media. The relative fluorescent intensity of the cells was measured using a fluorescence plate reader (Synergy H1, BioTeK, Winooski, VT, USA) with excitation/emission at 485 nm/535 nm. Curcumin (Cat. No. C1386-5G, Millipore Sigma, Burlington, MA, USA), a natural phenolic compound with antioxidant activity, was used as positive control. All samples were tested in triplicates. A sulforhodamine B (SRB) assay was conducted to assess cellular viability under a similar experimental setup. The final percentage of inhibition of ROS/RNS generation was calibrated using the % of cell viability.

- IC50: 7.6 ± 0.1 µM
Structure (SMILES): COc1cc(/C=C/C(=O)CC(=O)/C=C/c2ccc(O)c(OC)c2)ccc1O [Curcumin, reference compound]
